From patent US6706663B2, “Herbicidal 3-heterocyclic substituted benzisothiazole and benzisoxazole compounds” (Wyeth, priority 2000, dated 2004)

Assays:
ORYSAT (Rice, Tebonnet) [1] = assay: Preemergence herbicidal evaluation; assay type: in vivo, Oryza sativa, (L.) Tebonnet; conditions: rated 4-5 weeks after treatment
[2] = test system: ECHCG (Echinochloa crus-galli); assay: Postemergence herbicidal evaluation; assay type: in vivo, (L.) Beau; conditions: postemergence
Method in brief: (§1)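 Visual 0–9 injury scores versus control plants, covering stand, vigour, malformation, size, chlorosis and general appearance, taken four to five weeks post-spray and averaged over replicate tests. Plants were sprayed at roughly two weeks old and held on greenhouse benches.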

[3] = test system: CASOB (Cassia obtusifolia); assay: Preemergence herbicidal evaluation; assay type: in vivo, L.; conditions: rated 4-5 weeks after treatment
Method in brief: (§2)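 Steps: mix seeds with potting soil; plant on ~1 inch soil per cup; spray compound in aqueous acetone; hold on greenhouse benches with routine watering; rate 0–9 visually against control at 4–5 weeks.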

[4] = test system: CHEAL (Chenopodium album); assay: Preemergence herbicidal evaluation; assay type: in vivo, L.; conditions: rated 4-5 weeks after treatment
Method in brief: as §2

[5] = test system: AMBEL (Ambrosia artemisifolia); assay: Preemergence herbicidal evaluation; assay type: in vivo, L.; conditions: rated 4-5 weeks after treatment
Method in brief: as §2

[6] = test system: GLXMAW (Soybean, Williams); assay: Postemergence herbicidal evaluation; assay type: in vivo, Glycine max, (L.) Merr. cv Williams; conditions: postemergence
Method in brief: as §1

[7] = test system: ABUTH (Abutilon theophrasti); assay: Postemergence herbicidal evaluation; assay type: in vivo, Medic.; conditions: postemergence
Method in brief: as §1

[8] = test system: ABUTH (Abutilon theophrasti); assay: Preemergence herbicidal evaluation; assay type: in vivo, Medic.; conditions: rated 4-5 weeks after treatment
ORYSAT (Rice, Tebonnet) [9] = assay: Postemergence herbicidal evaluation; assay type: in vivo, Oryza sativa, (L.) Tebonnet; conditions: postemergence
Method in brief: as §1

ZEAMX (Corn, Field) = assay: Postemergence herbicidal evaluation; assay type: in vivo, Zea mays, L.; conditions: postemergence
Method in brief: as §1

GALAP (Galium aparine) [10] = assay: Preemergence herbicidal evaluation; assay type: in vivo; conditions: rated 4-5 weeks after treatment
Method in brief: as §2

[11] = test system: SAGPY (Sagittaria pygmaea); assay: Flooded paddy, preemergence weed control; assay type: in vivo, L.; conditions: rated 3-4 weeks after treatment, 0-9 rating scale
Method in brief: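 Under paddy conditions, seeds or vegetative propagules go into the top 0.5 cm of silt loam; the soil is then flooded to 1.5–3 cm and kept so. Treated pots stay in a greenhouse; response is rated 0-9 visually versus control.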

[12] = test system: IPOHE (Ipomoea hederacea); assay: Preemergence herbicidal evaluation; assay type: in vivo, (L.) Jacq.; conditions: rated 4-5 weeks after treatment
[13] = test system: CASOB (Cassia obtusifolia); assay: Postemergence herbicidal evaluation; assay type: in vivo, L.; conditions: postemergence
Method in brief: as §1

[14] = test system: CHEAL (Chenopodium album); assay: Postemergence herbicidal evaluation; assay type: in vivo, L.; conditions: postemergence
Method in brief: as §1

[15] = test system: AMBEL (Ambrosia artemisifolia); assay: Postemergence herbicidal evaluation; assay type: in vivo, L.; conditions: postemergence
Method in brief: as §1

ORYSAT (Rice, Tebonnet) [16] = assay: Flooded paddy, post-transplant rice tolerance; assay type: in vivo, Oryza sativa, (L.) Tebonnet; conditions: flooded paddy, post-transplant rice, rated 3-4 weeks after treatment, 0-9 rating scale
Method in brief: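 Steps: transplant two ten-day-old seedlings into silt loam; flood to 1.5-3 cm above soil; apply herbicide post-transplant; maintain water on greenhouse benches; rate stand, vigor, malformation, size and chlorosis on a 0-9 visual scale versus control.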

[17] = test system: TRZAWR (Wheat, Winter, cv Riband); assay: Preemergence herbicidal evaluation; assay type: in vivo, Triticum aestivum; conditions: rated 4-5 weeks after treatment
Method in brief: as §2

GALAP (Galium aparine) [18] = assay: Postemergence herbicidal evaluation; assay type: in vivo; conditions: postemergence
Method in brief: as §1

For `C[C@@H]1C[C@H](C)OC(c2nsc3cc(F)c(-n4c(=O)cc(C(F)(F)F)n(C)c4=O)cc23)O1` (stereo partly drawn) [Compound 67, 3-[3-[(4R,6S)-4,6-dimethyl-m-dioxan-2-yl]-6-fluoro-1,2-benzisothiazol-5-yl]-1-methyl-6-(trifluoromethyl)uracil], the “Preemergence herbicidal rating ORYSAT” value (ORYSAT (Rice, Tebonnet) [1]; Rate 0.0620 kg/ha) was 9.0, the “Preemergence herbicidal rating ORYSAT” value (ORYSAT (Rice, Tebonnet) [1]; Rate 0.1250 kg/ha) was 9.0 and the ECHCG herbicidal rating ([2]; rate 0.0320 kg/ha) was 3.0. The ECHCG herbicidal rating ([2]; rate 0.0620 kg/ha) was 4.0, the “Preemergence herbicidal rating CASOB” value ([3]; Rate 0.0620 kg/ha) was 5.5 and the “Preemergence herbicidal rating CASOB” value ([3]; Rate 0.1250 kg/ha) was 5.0. The “Preemergence herbicidal rating CHEAL” value ([4]; Rate 0.0620 kg/ha) was 9.0, the “Preemergence herbicidal rating CHEAL” value ([4]; Rate 0.1250 kg/ha) was 9.0 and the “Preemergence herbicidal rating AMBEL” value ([5]; Rate 0.0620 kg/ha) was 9.0. For the same compound, the “Preemergence herbicidal rating AMBEL” value ([5]; Rate 0.1250 kg/ha) was 9.0, the GLXMAW herbicidal rating ([6]; rate 0.0320 kg/ha) was 9.0 and the GLXMAW herbicidal rating ([6]; rate 0.0620 kg/ha) was 9.0. For the same compound, the ABUTH herbicidal rating ([7]; rate 0.0320 kg/ha) was 9.0, the ABUTH herbicidal rating ([7]; rate 0.0620 kg/ha) was 9.0 and the “Preemergence herbicidal rating ABUTH” value ([8]; Rate 0.0620 kg/ha) was 9.0. For the same compound, the “Preemergence herbicidal rating ABUTH” value ([8]; Rate 0.1250 kg/ha) was 9.0, the ORYSAT herbicidal rating (ORYSAT (Rice, Tebonnet) [9]; rate 0.0320 kg/ha) was 4.5 and the ORYSAT herbicidal rating (ORYSAT (Rice, Tebonnet) [9]; rate 0.0620 kg/ha) was 5.5. For the same compound, the ZEAMX herbicidal rating (ZEAMX (Corn, Field); rate 0.0320 kg/ha) was 5.5, the ZEAMX herbicidal rating (ZEAMX (Corn, Field); rate 0.0620 kg/ha) was 6.0 and the “Preemergence herbicidal rating GALAP” value (GALAP (Galium aparine) [10]; Rate 0.0620 kg/ha) was 8.0. For the same compound, the “Preemergence herbicidal rating GALAP” value (GALAP (Galium aparine) [10]; Rate 0.1250 kg/ha) was 9.0, the “herbicidal rating, SAGPY” value ([11]; rate 0.0080 kg/ha) was 1.5 and the “herbicidal rating, SAGPY” value ([11]; rate 0.0320 kg/ha) was 7.0. The “herbicidal rating, SAGPY” value ([11]; rate 0.1250 kg/ha) was 7.0, the “Preemergence herbicidal rating IPOHE” value ([12]; Rate 0.0620 kg/ha) was 7.0 and the “Preemergence herbicidal rating IPOHE” value ([12]; Rate 0.1250 kg/ha) was 9.0. It also gave a CASOB herbicidal rating ([13]; rate 0.0320 kg/ha) of 9.0, a CASOB herbicidal rating ([13]; rate 0.0620 kg/ha) of 9.0 and a CHEAL herbicidal rating ([14]; rate 0.0320 kg/ha) of 9.0. The CHEAL herbicidal rating ([14]; rate 0.0620 kg/ha) was 9.0, the AMBEL herbicidal rating ([15]; rate 0.0320 kg/ha) was 9.0 and the AMBEL herbicidal rating ([15]; rate 0.0620 kg/ha) was 9.0. For the same compound, the “herbicidal rating, ORYSAT (rice tolerance)” value (shortened to “herbicidal rating, ORYSAT”) (ORYSAT (Rice, Tebonnet) [16]; rate 0.0080 kg/ha) was 5.5, the “herbicidal rating, ORYSAT” value (ORYSAT (Rice, Tebonnet) [16]; rate 0.0320 kg/ha) was 9.0 and the “herbicidal rating, ORYSAT” value (ORYSAT (Rice, Tebonnet) [16]; rate 0.1250 kg/ha) was 9.0. The “Preemergence herbicidal rating TRZAWR” value ([17]; Rate 0.0620 kg/ha) was 9.0, the “Preemergence herbicidal rating TRZAWR” value ([17]; Rate 0.1250 kg/ha) was 9.0 and the GALAP herbicidal rating (GALAP (Galium aparine) [18]; rate 0.0320 kg/ha) was 6.0. It also gave a GALAP herbicidal rating (GALAP (Galium aparine) [18]; rate 0.0620 kg/ha) of 5.0.
In the case of `Cc1sccc1-c1nsc2ccc(-n3c(=O)cc(C(F)(F)F)n(C)c3=O)cc12` [Compound 68, 2,4(1H,3H)-pyrimidinedione, 1-methyl-3-[3-(2-methyl-3-thienyl)-1,2-benzisothiazol-5-yl]-6-(trifluoromethyl)-], the “Preemergence herbicidal rating ORYSAT” value (ORYSAT (Rice, Tebonnet) [1]; Rate 0.0620 kg/ha) is reported as 2.0, the “Preemergence herbicidal rating ORYSAT” value (ORYSAT (Rice, Tebonnet) [1]; Rate 0.1250 kg/ha) is reported as 3.5 and the “Preemergence herbicidal rating ORYSAT” value (ORYSAT (Rice, Tebonnet) [1]; Rate 0.2500 kg/ha) is reported as 5.0. For the same compound, the ECHCG herbicidal rating ([2]; rate 0.0320 kg/ha) was 4.0, the ECHCG herbicidal rating ([2]; rate 0.0620 kg/ha) was 5.0 and the “Preemergence herbicidal rating CASOB” value ([3]; Rate 0.0620 kg/ha) was 0.5. The “Preemergence herbicidal rating CASOB” value ([3]; Rate 0.1250 kg/ha) was 3.0, the “Preemergence herbicidal rating CASOB” value ([3]; Rate 0.2500 kg/ha) was 5.5 and the “Preemergence herbicidal rating CHEAL” value ([4]; Rate 0.0620 kg/ha) was 9.0. For the same compound, the “Preemergence herbicidal rating CHEAL” value ([4]; Rate 0.1250 kg/ha) was 9.0, the “Preemergence herbicidal rating CHEAL” value ([4]; Rate 0.2500 kg/ha) was 9.0 and the “Preemergence herbicidal rating AMBEL” value ([5]; Rate 0.0620 kg/ha) was 3.5. The “Preemergence herbicidal rating AMBEL” value ([5]; Rate 0.1250 kg/ha) was 5.0, the “Preemergence herbicidal rating AMBEL” value ([5]; Rate 0.2500 kg/ha) was 9.0 and the GLXMAW herbicidal rating ([6]; rate 0.0320 kg/ha) was 6.5. The GLXMAW herbicidal rating ([6]; rate 0.0620 kg/ha) was 7.0, the ABUTH herbicidal rating ([7]; rate 0.0320 kg/ha) was 9.0 and the ABUTH herbicidal rating ([7]; rate 0.0620 kg/ha) was 9.0. For the same compound, the “Preemergence herbicidal rating ABUTH” value ([8]; Rate 0.0620 kg/ha) was 8.5, the “Preemergence herbicidal rating ABUTH” value ([8]; Rate 0.1250 kg/ha) was 9.0 and the “Preemergence herbicidal rating ABUTH” value ([8]; Rate 0.2500 kg/ha) was 9.0. For the same compound, the ORYSAT herbicidal rating (ORYSAT (Rice, Tebonnet) [9]; rate 0.0320 kg/ha) was 4.0, the ORYSAT herbicidal rating (ORYSAT (Rice, Tebonnet) [9]; rate 0.0620 kg/ha) was 5.0 and the ZEAMX herbicidal rating (ZEAMX (Corn, Field); rate 0.0320 kg/ha) was 5.5. The ZEAMX herbicidal rating (ZEAMX (Corn, Field); rate 0.0620 kg/ha) was 6.0, the “Preemergence herbicidal rating GALAP” value (GALAP (Galium aparine) [10]; Rate 0.0620 kg/ha) was 7.0 and the “Preemergence herbicidal rating GALAP” value (GALAP (Galium aparine) [10]; Rate 0.1250 kg/ha) was 6.0. For the same compound, the “Preemergence herbicidal rating GALAP” value (GALAP (Galium aparine) [10]; Rate 0.2500 kg/ha) was 9.0, the “herbicidal rating, SAGPY” value ([11]; rate 0.0080 kg/ha) was 0.0 and the “herbicidal rating, SAGPY” value ([11]; rate 0.0320 kg/ha) was 0.0. For the same compound, the “herbicidal rating, SAGPY” value ([11]; rate 0.1250 kg/ha) was 9.0, the “Preemergence herbicidal rating IPOHE” value ([12]; Rate 0.0620 kg/ha) was 1.5 and the “Preemergence herbicidal rating IPOHE” value ([12]; Rate 0.1250 kg/ha) was 3.0. The “Preemergence herbicidal rating IPOHE” value ([12]; Rate 0.2500 kg/ha) was 4.5, the CASOB herbicidal rating ([13]; rate 0.0320 kg/ha) was 5.0 and the CASOB herbicidal rating ([13]; rate 0.0620 kg/ha) was 6.0. The CHEAL herbicidal rating ([14]; rate 0.0320 kg/ha) was 9.0, the CHEAL herbicidal rating ([14]; rate 0.0620 kg/ha) was 9.0 and the AMBEL herbicidal rating ([15]; rate 0.0320 kg/ha) was 9.0. For the same compound, the AMBEL herbicidal rating ([15]; rate 0.0620 kg/ha) was 9.0, the “herbicidal rating, ORYSAT” value (ORYSAT (Rice, Tebonnet) [16]; rate 0.0080 kg/ha) was 1.5 and the “herbicidal rating, ORYSAT” value (ORYSAT (Rice, Tebonnet) [16]; rate 0.0320 kg/ha) was 2.5. For the same compound, the “herbicidal rating, ORYSAT” value (ORYSAT (Rice, Tebonnet) [16]; rate 0.1250 kg/ha) was 3.5, the “Preemergence herbicidal rating TRZAWR” value ([17]; Rate 0.0620 kg/ha) was 2.0 and the “Preemergence herbicidal rating TRZAWR” value ([17]; Rate 0.1250 kg/ha) was 5.0. The “Preemergence herbicidal rating TRZAWR” value ([17]; Rate 0.2500 kg/ha) was 7.0, the GALAP herbicidal rating (GALAP (Galium aparine) [18]; rate 0.0320 kg/ha) was 9.0 and the GALAP herbicidal rating (GALAP (Galium aparine) [18]; rate 0.0620 kg/ha) was 9.0.
